According to US11707527B2, “Nanoscale drug carrier capable of passing through blood-brain barrier” (KUNSHAN XINYUNDA BIOTECH CO., LTD., priority 2017, dated 2023):

System: glioma model mice
Experiment: Therapy of glioma-bearing mice, survival
Conditions: doxorubicin 1 mg/Kg at 9d, 12d and 15d after tumor cell inoculation
Experimental: An animal therapy experiment was conducted by the inventor to glioma-bearing mice (same mice as in Example 4). In the experiment, glioma model mice (same mice as in Example 4) were divided into two groups, 5 mice for each group. And then glioma model mice were treated with doxorubicin (1 mg/Kg) respectively after tumor cell inoculation for 9d, 12d and 15d.

SMILES: COc1cccc2c1C(=O)c1c(O)c3c(c(O)c1C2=O)C[C@@](O)(C(=O)CO)C[C@@H]3O[C@H]1C[C@H](N)[C@H](O)[C@H](C)O1 [Free-Dox, doxorubicin]
- Mean survival time / survival period: 15 days
